Source: US9505729B2, “Isoxazole analogs as mediators of transcriptional induction of E-cadherin” (Vanderbilt University, priority 2014, dated 2016)

Tested on: E-cadherin expression in SW620 cells
Experiment: In-cell Western (ICW) cell-based functional assay of E-cadherin expression in SW620 cells
Conditions: Homo sapiens, SW-620; for fold induction at 10 µM: change in expression level of E-cadherin in response to 10 μM compound, SW620 cells, 24 hours; for EC50: inducement of E-cadherin expression in SW620 cells
Method: SW620 and H520 cells (5×10^4/100 μL) were seeded in a 96-well plate prior to treatment. Cells were treated with 10 μM concentration of synthesized compound in quadruplicate for 24 hours in RPMI 1640 supplemented medium and 100 μg/mL penicillin-streptomycin. The cells were then fixed with 100% methanol for 20 minutes at 4° C. The wells were then washed 2 times with PBS, permeabilized in 2% bovine serum albumin (BSA) and 0.2% TritonX-100 in PBS for 30 minutes at room temperature with gentle agitation, and blocked in LI-COR blocking buffer for 30 minutes at room temperature with gentle agitation. The cells were then incubated with the following primary antibodies: anti-E-Cadherin (1:500) and anti-α-Tubulin (1:1000) diluted in blocking buffer (1:1 dilution in PBS) for 2 hours at room temperature with gentle agitation. The cells were washed 4 times in PBS-T for 5 minutes each, and then incubated with the following secondary antibodies conjugated to a fluorescent entity: IRDye 800-conjugated goat anti-rabbit IgG (1:1000) and IRDye-700-conjugated goat anti-mouse IgG (1:2000) in blocking buffer (1:1 dilution in PBS) with gentle agitation for 1 h at room temperature. The cells were washed 4 times in PBS-T for 5 minutes each followed by a single wash with PBS. All liquid was removed from the wells and the plates were visualized and analyzed on the Odyssey IR imaging system (LI-COR Biosciences).
The assay was further optimized in the following manner. The cells were washed 2 times with PBS, fixed in 100% methanol at room temperature for 15 minutes, and again washed 2 times with PBS. The cells were then incubated with the following primary antibodies: anti-E-Cadherin (1:200) and anti-α-Tubulin (1:2000) diluted in ice cold 2% bovine serum albumin (BSA) and 0.2% TritonX-100 in PBS for 1 hour at room temperature with gentle agitation. The cells were washed 2 times in PBS and then incubated with the following secondary antibodies conjugated to a fluorescent entity: Licor 800-conjugated goat anti-rabbit IgG (1:2000) and IRDye-700-conjugated goat anti-mouse IgG (1:2000) in ice cold 2% BSA and 0.2% TritonX-100 in PBS with gentle agitation for 45 minutes at room temperature. The wells were washed 2 times in PBS, dried, and analyzed as previously mentioned.
N-(3-(Arylamino)alkyl)-5-arylisoxazole-3-carboxamide analogs were synthesized as described above. Changes in expression level of E-cadherin in response to 10 μM compound in SW620 cells was determined in the cell-based functional assay as described above, and the data are shown in Table II. The compound number corresponds to the compound numbers used in Table I.
EC50 of inducement of E-cadherin expression in SW620 cells was determined in the cell-based functional assay as described above, and the data are shown in Table III. The compound number corresponds to the compound numbers used in Table I.

| EC50 | Structure (SMILES) | fold induction at 10 µM |
| --- | --- | --- |
| 22.9 µM | O=C(NCCCNc1nccc(Cl)n1)c1cc(-c2ccccc2)[nH]n1 [Compound 38, N-(3-((4-chloropyrimidin-2-yl)amino)propyl)-5-phenyl-1H-pyrazole-3-carboxamide] | 7.36 |
| 5.32 µM | [N-]=[N+]=Nc1ccnc(NCCCNC(=O)c2cc(-c3ccccc3)[nH]n2)n1 [Compound 39, N-(3-((4-azidopyrimidin-2-yl)amino)propyl)-5-phenyl-1H-pyrazole-3-carboxamide] | 15.9 |
